The source of these data is patent publication US9895369B2, “Stable and soluble formulations of receptor tyrosine kinase inhibitors, and methods of preparation thereof” (ForSight Vision4, Inc., priority 2014, dated 2018).

Data set [1] can be described thus: pH comparison of pazopanib/CAPTISOL solutions with similar composition. The conditions noted are these: about 22.4 mg pazopanib salt + about 157 mg CAPTISOL (1.5x molar ratio to drug) in 1 mL water. The format is physicochemical. The text has this: From the results of the pH and the chloride content analysis it is concluded that the pharmaceutical ingredient from sample-1 contains 2-HCl per each pazopanib molecule, compared to active from sample-2, which contains only 1 HCl/per drug molecule.

Data set [2] in a line: Precipitation during ambient (room temperature) storage of the formulation. The format is physicochemical. The conditions noted are these: high drug concentration; crystallized out during storage and during drug release.

On to `Cc1ccc(Nc2nccc(N(C)c3ccc4c(C)n(C)nc4c3)n2)cc1S(N)(=O)=O` [Pazopanib-Sample 1, 5-[[4-[(2,3-Dimethyl-2H-indazol-6-yl)methylamino]-2-pyrimidinyl]amino]-2-methylbenzolsulfonamide], for which the “pH, measured” value in data set [1] is 1.68.

Turning to `Cc1ccc(Nc2nccc(N(C)c3ccc4c(C)n(C)nc4c3)n2)cc1S(N)(=O)=O` [Pazopanib-Sample 2 (1HCl), 5-[[4-[(2,3-Dimethyl-2H-indazol-6-yl)methylamino]-2-pyrimidinyl]amino]-2-methylbenzolsulfonamide], in data set [2], the “Stability of high concentration formulations (on shelf and upon dilution)” value is reported as “very unstable”. In addition, the “pH, measured” value in data set [1] was 3.36.

Regarding `Cc1ccc(Nc2nccc(N(C)c3ccc4c(C)n(C)nc4c3)n2)cc1S(N)(=O)=O` [Pazopanib-Sample 2-lyophilized-TFE (1HCl)] [5-[[4-[(2,3-Dimethyl-2H-indazol-6-yl)methylamino]-2-pyrimidinyl]amino]-2-methylbenzolsulfonamide], the “pH, measured” value in data set [1] is reported as 3.34.
